What is called inhibition is the change of the read-out against control, counted positive when it falls. As usually defined, the melting point is the temperature of the solid-liquid transition.

The structures appear in SMILES notation.

Drawing on patent US7071340B2, “Fungicidal 1-benzoxepin derivatives” (Bayer Cropscience S.A., priority 2001, dated 2006), this text covers inhibition and melting point for 17 compounds.

One data set has as its system Septoria nodorum. The data set is described as follows: Biological test on isolated fungi in culture medium, 96-well microplates (Example B2). In kind it is cell-based. Particulars: Parastagonospora nodorum, 120 h; dose of 50 ppm; culturing 5 days at 20° C.; optical density at 620 nm or 405 nm; read-out: inhibition of Septoria nodorum (percentage of inhibition of the growth, Abbott's formula). As to the method: (§1) The test is carried out on isolated fungi in a culture medium, in 96-well microplates. The products are dissolved in acetonitrile and are then diluted to 1/50th in methanol, so as to distribute 50 μl for a dose of 50 ppm in each well. Once the compounds are distributed, the microplates are dried under a stream of nitrogen at 40° C. The culture medium and the inoculum are subsequently added.
(§2) The growth of the fungi is measured after culturing for 5 days at 20° C. by reading the optical density at 620 nm or 405 nm, depending on the strains. The effectiveness of the product is the percentage of inhibition of the growth of the fungi calculated according to Abbott's formula, the absorbance of the growth control wells and the absorbance of the treated wells being taken as reference values.
At a dose of 50 ppm, complete or good (at least 70%) inhibition of Septoria nodorum is observed with the compounds described in the following examples: 5, 28, 29, 30, 32, 33, 34, 40, 55, 57, 63, 65, 67, 68, 70, 72, 82 and 86.

In the next data set the test system is Botrytis cinerea. The data set is described as follows: Biological test on isolated fungi in culture medium, 96-well microplates (Example B1). In kind it is cell-based. Conditions: 120 h, dose of 50 ppm, culturing 5 days at 20° C., optical density at 620 nm or 405 nm, read-out: inhibition of Botrytis cinerea (percentage of inhibition of the growth, Abbott's formula). The method, then:
as §1, §2
At a dose of 50 ppm, complete or good (at least 70%) inhibition of Botrytis cinerea is observed with the compounds described in the following examples: 28, 32, 47, 65, 68 and 70.

In a further data set the test system is Monilia fructigena. The data set is described as follows: Biological test on isolated fungi in culture medium, 96-well microplates (Example B3). Particulars: 120 h, dose of 50 ppm, culturing 5 days at 20° C., optical density at 620 nm or 405 nm, read-out: inhibition of Monilia fructigena (percentage of inhibition of the growth, Abbott's formula). Type of data set: cell-based. As to the method: as §1, §2
At a dose of 50 ppm, complete or good (at least 70%) inhibition of Monilia fructigena is observed with the compounds described in the following examples: 28, 32 and 70.

Another data set concerns Magnaporthe orysae. The data set is described as follows: tissue or blood. In kind it is cell-based. Particulars: 120 h, read-out: inhibition of Magnaporthe orysae (percentage of inhibition of the growth, Abbott's formula).
A further data set relates to Rhizoctonia solani. The data set is described as follows: Biological test on isolated fungi in culture medium, 96-well microplates (Example B6). Type of data set: cell-based. Particulars: 120 h, dose of 50 ppm, culturing 5 days at 20° C., optical density at 620 nm or 405 nm, read-out: inhibition of Rhizoctonia solani (percentage of inhibition of the growth, Abbott's formula). The method, then: as §1, §2
At a dose of 50 ppm, complete or good (at least 70%) inhibition of Rhizoctonia solani is observed with the compounds described in the following examples: 28, 32, 55, 68 and 70.

In data set [1] the test system is Mycosphaerella graminacola. The data set is described as follows: Biological test on isolated fungi in culture medium, 96-well microplates (Example B7). Particulars: 120 h, dose of 50 ppm, culturing 5 days at 20° C., optical density at 620 nm or 405 nm, read-out: inhibition of Mycosphaerella graminacola (percentage of inhibition of the growth, Abbott's formula). In kind it is cell-based. The method, then:
as §1, §2
At a dose of 50 ppm, complete or good (at least 70%) inhibition of Mycosphaerella graminacola is observed with the compounds described in the following examples: 28, 32, 55 and 70.

A further data set concerns Venturia pirina. Description: Biological test on isolated fungi in culture medium, 96-well microplates (Example B8). Type of data set: cell-based. Conditions: Venturia pyrina, 120 h; dose of 50 ppm; culturing 5 days at 20° C.; optical density at 620 nm or 405 nm; read-out: inhibition of Venturia pirina (percentage of inhibition of the growth, Abbott's formula). As to the method:
as §1, §2
At a dose of 50 ppm, complete or good (at least 70%) inhibition of Venturia pirina is observed with the compounds described in the following example: 28.

With `O=C(O)c1ccc2c(c1)C=CC(=CCl)CO2` [Example 63, 3-(chloromethylene)-2,3-dihydro-1-benzoxepin-7-carboxylic acid], the melting point was > 260 °C. Moreover, the inhibition at 50 ppm in the data set with Septoria nodorum is ≥ 70%. On to `C=C1COc2ccc(C(C)=O)cc2C(Cc2ccccc2)(S(=O)(=O)c2ccccc2)C1` (stereo not shown) [Example 18, 1-[5-benzyl-3-methylene-5-(phenylsulfonyl)-2,3,4,5-tetrahydro-1-benzoxepin-7-yl]ethanone], for which the melting point is 131 to 132 °C.

For `CC(=O)c1ccc2c(c1)C(Cc1ccccc1)=CC(=O)CO2` [Example 29, 7-acetyl-5-benzyl-1-benzoxepin-3(2H)-one], the inhibition at 50 ppm in the data set with Septoria nodorum was ≥ 70%. On the same count and under the same terms, the value for `COC(=O)c1ccc2c(c1)C(Cc1ccccc1)=CC(=CCl)CO2` [Example 34, methyl 5-benzyl-3-(chloromethylene)-2,3-dihydro-1-benzoxepin-7-carboxylate] was ≥ 70%.

As to `C=C1COc2ccc(C(C)=O)cc2C(S(=O)(=O)c2ccccc2)C1` (stereo not shown) [Example 13, 1-[3-methylene-5-(phenylsulfonyl)-2,3,4,5-tetrahydro-1-benzoxepin-7-yl]ethanone], the melting point lay in the range of 124 to 125 °C.

Take `CC(=O)c1ccc2c(c1)C=CC(=CCl)CO2` [Example 28, 1-[3-(chloromethylene)-2,3-dihydro-1-benzoxepin-7-yl]ethanone]: the inhibition at 50 ppm (with Botrytis cinerea; in the data set on Septoria nodorum; in the data set on Monilia fructigena; with Magnaporthe orysae; in the data set on Rhizoctonia solani; in data set [1]) was ≥ 70% throughout. Besides, the inhibition at 50 ppm in the data set with Venturia pirina was ≥ 70%. With `C=C1COc2ccc(C(=O)OC)cc2C(Cc2ccccc2)(S(=O)(=O)c2ccccc2)C1` (stereo not shown) [Example 6, methyl 5-benzyl-3-methylene-5-(phenylsulfonyl)-2,3,4,5-tetrahydro-1-benzoxepin-7-carboxylate], the melting point lay within 164 to 165 °C. On the same count and under the same terms, the same measure for `C=C1C=Cc2cc(C(=O)Nc3ccccc3)ccc2OC1` [Example 41, 3-methylene-N-phenyl-2,3-dihydro-1-benzoxepin-7-carboxamide]: 139 °C. Turning to `COC(=O)c1ccc2c(c1)CCC(=CCl)CO2` [Example 5, methyl 3-(chloromethylene)-2,3,4,5-tetrahydro-1-benzoxepin-7-carboxylate], the inhibition at 50 ppm in the data set on Septoria nodorum is ≥ 70%. With `COC(=O)c1ccc2c(c1)C=CC(=C(Cl)Cl)CO2` [Example 54, methyl 3-(dichloromethylene)-2,3-dihydro-1-benzoxepin-7-carboxylate], the melting point was 119 to 121 °C. On to `COC(=O)c1ccc2c(c1)C(Cc1ccccc1)=CC(=O)CO2` [Example 33, methyl 5-benzyl-3-oxo-2,3-dihydro-1-benzoxepin-7-carboxylate], for which, in the data set on Septoria nodorum, the inhibition at 50 ppm was ≥ 70%. In the case of `O=Cc1ccc2c(c1)C=CC(=CCl)CO2` [Example 72, 3-(chloromethylene)-2,3-dihydro-1-benzoxepin-7-carbaldehyde], the inhibition at 50 ppm in the data set on Septoria nodorum was ≥ 70%.

As for `CC(=O)c1ccc2c(c1)C(Cc1ccccc1)=CC(=CCl)CO2` [Example 30, 1-[5-benzyl-3-(chloromethylene)-2,3-dihydro-1-benzoxepin-7-yl]ethanone], the inhibition at 50 ppm with Septoria nodorum was ≥ 70%. In the case of `COC(=O)c1ccc2c(c1)C=CC(=CCl)CO2` [Example 32, methyl 3-(chloromethylene)-2,3-dihydro-1-benzoxepin-7-carboxylate], the melting point lay in the range of 72 to 77 °C. The inhibition at 50 ppm in the data set with Botrytis cinerea is ≥ 70%. In addition, the inhibition at 50 ppm in the data set on Septoria nodorum is ≥ 70%. Also, the inhibition at 50 ppm with Monilia fructigena is ≥ 70%. In addition, the inhibition at 50 ppm with Magnaporthe orysae was ≥ 70%. Also, the inhibition at 50 ppm with Rhizoctonia solani was ≥ 70%. Further, the inhibition at 50 ppm in data set [1] is ≥ 70%. Compound `CC(=O)c1ccc2c(c1)CCC(=O)CO2` [Example 16, 7-acetyl-4,5-dihydro-1-benzoxepin-3(2H)-one] yielded a melting point of 80 to 82 °C. On to `C=C1C=Cc2cc(C(=O)O)ccc2OC1` [Example 40, 3-methylene-2,3-dihydro-1-benzoxepin-7-carboxylic acid], for which the melting point amounted to 188 °C. Moreover, the inhibition at 50 ppm in the data set with Septoria nodorum is ≥ 70%. In turn, `COC(=O)c1ccc2c(c1)C=CC(=O)CO2` [Example 31, methyl 3-oxo-2,3-dihydro-1-benzoxepin-7-carboxylate] yielded a melting point of 98 °C.
